What was measured:
[1] = Bulk hold study, ticagrelor 8 mg/ml in HPβCD 30% w/w, phosphate buffer pH 7.5; format: physicochemical
Method: To investigate the impact of temperature and hold time, a new composition was prepared as per below Table 19. In first step a phosphate buffer at pH 7.5 was prepared and the buffered solution was heated to 40° C.-45° C. HPβCD was added to the buffered solution under continuous mixing. […] It usually took 30 mins to 4 hours depending on batch size. Then this solution was filtered through a 0.22-micron filter and packed in suitable clear or amber colored glass vials.

[2] = 30-42% confidence interval; cited from earlier work
[3] = bulk hold at 45° C. in glass vials, T = 1 h
[4] = bulk hold at 45° C. in glass vials, T = 110 h
[5] = bulk solution in sealed vials, T = 1 M, 25° C.
[6] = bulk solution in sealed vials, T = 1 M, 40° C.

In the case of `CCCSc1nc(N[C@@H]2C[C@H]2c2ccc(F)c(F)c2)c2nnn([C@@H]3C[C@H](OCCO)[C@@H](O)[C@H]3O)c2n1` [ticagrelor, (1S,2S,3R,5S)-3-{7-[(1R,2S)-2-(3,4-difluorophenyl)cyclopropylamino]5-(propylthio)-3H-(1,2,3)triazolo (4,5-D)pyrimidin-3-yl}-5-(2 hydroxyethoxy) cyclopentane-1,2-diol], the “Acetal impurity, average content” value ([1]; bulk hold at 30° C., T0) is reported as 0.04%, the “Amine impurity, average content” value ([1]; bulk hold at 30° C., T0) is reported as 0.06% and the Assay ticagrelor ([1]; bulk hold at 30° C., T0) is reported as 105.60%. For the same compound, the “Regiomer impurity, average content” value ([1]; bulk hold at 30° C., T0) was 0.00%, the “Sum impurities >0.05” value ([1]; bulk hold at 30° C., T0) was 0.10% and the Total impurities ([1]; bulk hold at 30° C., T0) was 0.21%. The “Triol Impurity, average content” value ([1]; bulk hold at 30° C., T0) was 0.05%, the “Acetal impurity, average content” value ([1]; bulk hold at 30° C., T4 W) was 0.04% and the “Amine impurity, average content” value ([1]; bulk hold at 30° C., T4 W) was 0.06%. For the same compound, the Assay ticagrelor ([1]; bulk hold at 30° C., T4 W) was 106.14%, the “Regiomer impurity, average content” value ([1]; bulk hold at 30° C., T4 W) was 0.00% and the “Sum impurities >0.05” value ([1]; bulk hold at 30° C., T4 W) was 0.06%. The Total impurities ([1]; bulk hold at 30° C., T4 W) was 0.21%, the “Triol Impurity, average content” value ([1]; bulk hold at 30° C., T4 W) was 0.04% and the “Acetal impurity, average content” value [1, 3] was 0.04%. For the same compound, the “Amine impurity, average content” value [1, 3] was 0.05%, the Assay ticagrelor [1, 3] was 107.87% and the “Impurity at relative retention time 1.33, average content” value [1, 3] was 0.07%. For the same compound, the “Sum impurities >0.05” value [1, 3] was 0.12%, the Total impurities [1, 3] was 0.20% and the “Triol Impurity, average content” value [1, 3] was 0.04%. The “Acetal impurity, average content” value [1, 4] was 0.04%, the “Amine impurity, average content” value [1, 4] was 0.07% and the Assay ticagrelor [1, 4] was 109.10%. For the same compound, the “Impurity at relative retention time 1.33, average content” value [1, 4] was 0.03%, the “Sum impurities >0.05” value [1, 4] was 0.11% and the Total impurities [1, 4] was 0.28%. The “Triol Impurity, average content” value [1, 4] was 0.05%, the “Acetal impurity, average content” value [1, 5] was 0.03% and the “Amine impurity, average content” value [1, 5] was 0.06%. The Assay ticagrelor [1, 5] was 107.22%, the “Impurity at relative retention time 1.03, average content” value [1, 5] was 0.02% and the “Impurity at relative retention time 1.33, average content” value [1, 5] was 0.03%. For the same compound, the “Regiomer impurity, average content” value [1, 5] was 0.03%, the “Sum impurities >0.05” value [1, 5] was 0.06% and the Total impurities [1, 5] was 0.23%. The “Triol Impurity, average content” value [1, 5] was 0.01%, the “Acetal impurity, average content” value [1, 6] was 0.00% and the “Amine impurity, average content” value [1, 6] was 0.06%. The Assay ticagrelor [1, 6] was 105.16%, the “Impurity at relative retention time 1.03, average content” value [1, 6] was 0.02% and the “Impurity at relative retention time 1.33, average content” value [1, 6] was 0.08%. For the same compound, the “Regiomer impurity, average content” value [1, 6] was 0.08%, the “Sum impurities >0.05” value [1, 6] was 0.21% and the Total impurities [1, 6] was 0.28%. The “Triol Impurity, average content” value [1, 6] was 0.00% and the Oral bioavailability [2] was 36%.

— patent US20260007599A1, “TICAGRELOR IV FORMULATIONS FOR USE IN THE TREATMENT OF GRAM-POSITIVE BACTEREMIA” (Hyloris Developments SA, priority 2023, published 2026)
